From patent US9833497B2, “Human originated EGF domain proteins and use of the same” (CHENGDU SOURCEBIO LIMITED-LIABILITY COMPANY, priority 2013, dated 2017)

What was measured:
Type in all cases: cell-based
Aeromonas hydrophila = experiment: MIC against Gram-negative bacteria: Aeromonas hydrophila; details: 5×10^5 CFU/mL
How it was run: (§1)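 LB broth cultures at McFarland 0.5, spun down, resuspended, diluted to 5×10^5 CFU/mL final. Two-fold serial dilutions of purified human EGF domain proteins, triplicate. 37° C, 175 rpm shaking. Endpoint: no visible growth.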

Enterobacter cloacae = experiment: MIC against Gram-negative bacteria: Enterobacter cloacae; details: 5×10^5 CFU/mL
How it was run: as §1

Proteus vulgaris = experiment: MIC against Gram-negative bacteria: Proteus vulgaris; details: 5×10^5 CFU/mL
How it was run: as §1

Proteus mirabilis = experiment: MIC against Gram-negative bacteria: Proteus mirabilis; details: 5×10^5 CFU/mL
How it was run: as §1

Moraxella catarrhalis = experiment: MIC against Gram-negative bacteria: Moraxella catarrhalis; details: 5×10^5 CFU/mL
How it was run: as §1

E. coli DH5α = experiment: Antibacterial activity: MIC and growth curve against E. coli DH5α in 96-well plate; details: minimal inhibitory concentration against E. coli DH5α; 96-well plate, 5×10^5 CFU/mL, 37° C., judged after 8 h
How it was run: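 Log-phase DH5α (OD600 about 0.5, 37° C, 185 rpm in LB) was pelleted, resuspended in fresh LB and seeded at 5×10^5 CFU/mL with recombinant protein at 50, 25 and 12.5 μg/mL (two-fold series), in triplicate. Plates were shaken at 175 rpm, 37° C, and OD600 was read every 30 min. MIC was the lowest concentration with no growth.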

Pseudomonas aeruginosa = experiment: MIC against Gram-negative bacteria: Pseudomonas aeruginosa; details: 5×10^5 CFU/mL
How it was run: as §1

Serratia marcescens = experiment: MIC against Gram-negative bacteria: Serratia marcescens; details: 5×10^5 CFU/mL
How it was run: as §1

Klebsiella pneumonia = experiment: MIC against Gram-negative bacteria: Klebsiella pneumonia; details: 5×10^5 CFU/mL
How it was run: as §1

Citrobacter diversus = experiment: MIC against Gram-negative bacteria: Citrobacter diversus; details: 5×10^5 CFU/mL
How it was run: as §1

E. coli BL21 = experiment: MIC against Gram-negative bacteria: E. coli BL21; details: 5×10^5 CFU/mL
How it was run: as §1

[1] = A. hydrophila, 10 h cultivation at 37° C.
[2] = E. cloacae, 10 h cultivation at 37° C.
[3] = P. vulgaris, 10 h cultivation at 37° C.
[4] = P. mirabilis, 10 h cultivation at 37° C.
[5] = M. catarrhalis, 10 h cultivation at 37° C.
[6] = P. aeruginosa, 10 h cultivation at 37° C.
[7] = S. marcescens, 10 h cultivation at 37° C.
[8] = K. pneumonia, 10 h cultivation at 37° C.
[9] = C. diversus, 10 h cultivation at 37° C.

Substance	MIC (μg/mL) A. hydrophila (Aeromonas hydrophila; [1])	MIC (μg/mL) E. cloacae (Enterobacter cloacae; [2])	MIC (μg/mL) P. vulgaris (Proteus vulgaris; [3])	MIC (μg/mL) P. mirabilis (Proteus mirabilis; [4])	MIC (μg/mL) M. catarrhalis (Moraxella catarrhalis; [5])	MIC (E. coli DH5α)	MIC (μg/mL) P. aeruginosa (Pseudomonas aeruginosa; [6])	MIC (μg/mL) S. marcescens (Serratia marcescens; [7])	MIC (μg/mL) K. pneumonia (Klebsiella pneumonia; [8])	MIC (μg/mL) C. diversus (Citrobacter diversus; [9])	MIC (μg/mL) E. coli BL21 (E. coli BL21; 10 h cultivation at 37° C.)	also measured
PRT214 (DDNECGNLTQSCGENANCTNTEGSYYCMCVPGFRSSSNQDRFITNDGTVCI; listed as Homo sapiens)	25 µg/mL	12.5 µg/mL	25 µg/mL	12.5 µg/mL	25 µg/mL	12.5 µg/mL	12.5 µg/mL	12.5 µg/mL	25 µg/mL	12.5 µg/mL	25 µg/mL	
PRT39 (PVRDCSRNNGGCTRNFKCVSDRQVDSSGCVCPEELKPMKDGSGCY; listed as Homo sapiens)						50 µg/mL						MIC (μg/mL) A. hydrophila (Aeromonas hydrophila; Aeromonas hydrophila, 96-well plate, 37° C., 10 h): 50 µg/mL; MIC (μg/mL) E. cloacae (Enterobacter cloacae; Enterobacter cloacae, 96-well plate, 37° C., 10 h): 25 µg/mL; MIC (μg/mL) P. vulgaris (Proteus vulgaris; Proteus vulgaris, 96-well plate, 37° C., 10 h): 12.5 µg/mL; MIC (μg/mL) P. mirabilis (Proteus mirabilis; Proteus mirabilis, 96-well plate, 37° C., 10 h): 25 µg/mL; MIC (μg/mL) M. catarrhalis (Moraxella catarrhalis; Moraxella catarrhalis, 96-well plate, 37° C., 10 h): 12.5 µg/mL; MIC (μg/mL) P. aeruginosa (Pseudomonas aeruginosa; Pseudomonas aeruginosa, 96-well plate, 37° C., 10 h): 50 µg/mL; MIC (μg/mL) S. marcescens (Serratia marcescens; Serratia marcescens, 96-well plate, 37° C., 10 h): 12.5 µg/mL; MIC (μg/mL) K. pneumonia (Klebsiella pneumonia; Klebsiella pneumonia, 96-well plate, 37° C., 10 h): 50 µg/mL; MIC (μg/mL) C. diversus (Citrobacter diversus; Citrobacter diversus, 96-well plate, 37° C., 10 h): 50 µg/mL; MIC (μg/mL) E. coli BL21 (E. coli BL21; 96-well plate, 37° C., 10 h): 25 µg/mL
PRT476 (VVPVCRPNPCQNGATCSRHKRRSKFTCACPDQFKGKFCE; listed as Homo sapiens)						12.5 µg/mL						MIC against A. hydrophila (Aeromonas hydrophila; 96-well plate, 37° C., 10 h): 12.5 µg/mL; MIC against E. cloacae (Enterobacter cloacae; 96-well plate, 37° C., 10 h): 50 µg/mL; MIC against P. vulgaris (Proteus vulgaris; 96-well plate, 37° C., 10 h): 12.5 µg/mL; MIC against P. mirabilis (Proteus mirabilis; 96-well plate, 37° C., 10 h): 25 µg/mL; MIC against M. catarrhalis (Moraxella catarrhalis; 96-well plate, 37° C., 10 h): 25 µg/mL; MIC against P. aeruginosa (Pseudomonas aeruginosa; 96-well plate, 37° C., 10 h): 50 µg/mL; MIC against S. marcescens (Serratia marcescens; 96-well plate, 37° C., 10 h): 50 µg/mL; MIC against K. pneumonia (Klebsiella pneumonia; 96-well plate, 37° C., 10 h): 12.5 µg/mL; MIC against C. diversus (Citrobacter diversus; 96-well plate, 37° C., 10 h): 50 µg/mL; MIC against E. coli BL21 (E. coli BL21; 96-well plate, 37° C., 10 h): 12.5 µg/mL
PRT763 (ALDRCALNTHGCEHICVNDRSGSYHCECYEGYTLNEDRKTCS; listed as Homo sapiens)	25 µg/mL	12.5 µg/mL	50 µg/mL	12.5 µg/mL	12.5 µg/mL	25 µg/mL	12.5 µg/mL	25 µg/mL	25 µg/mL	12.5 µg/mL	50 µg/mL	
PRT848 (CQCNNRSASCDALTGACLNCQENSKGNHCEECKEGFYQSPDATKECLR; listed as Homo sapiens)	12.5 µg/mL	50 µg/mL	25 µg/mL	50 µg/mL	12.5 µg/mL	25 µg/mL	25 µg/mL	12.5 µg/mL	25 µg/mL	50 µg/mL	12.5 µg/mL	
